US8247170B2, “Detection of penicillin tolerance in Group B Streptococcus: single nucleotide polymorphisms in penicillin binding protein 4” (priority 2008, dated 2012)

Tested on: GBS clinical isolates and laboratory strains
Test: Macrobroth penicillin tolerance assay
Format: cell-based, Group B Streptococcus
Details: then 24 h drug-free; for 100xMIC, regrowth O.D.600: Penicillin G 100×MIC90 48 h; for 300xMIC, regrowth O.D.600: Penicillin G 300×MIC90 48 h; for 10xMIC, regrowth O.D.600: Penicillin G 10×MIC90 48 h; for 30xMIC, regrowth O.D.600: Penicillin G 30×MIC90 48 h
Method: Using this modified penicillin tolerance assay, tolerant strains from the GBS clinical isolates can be more efficiently identified. In this macrobroth culture format, 25 ml THB broth GBS cultures (containing clinical isolates) were grown to an early exponential growth phase (˜0.2 OD600). Cell cultures (6 ml) were collected and divided into 4 culture tubes. […] Cell cultures were shaken at 150 rpm in order to maintain cells in suspension for proper growth. Subcultures (1/20 dilution) of cells were put into fresh THB containing […] Penase (i.e., 100 μl of Penase 10,000 U stock into 4 ml THB culture). Subcultures were allowed to grow for 24 hours at 37° C. Cell growth was monitored by OD (see Example 2).
(I) Bacterial Strains and Culture Conditions. GBS strains A909 (serotype IA), 515 (serotype IA), NEM316 (serotype III), COHI (serotype III), 2603V/R (serotype V) and O90R (non-typable) were used in this study. E. coli Top10 cells were used for the recombination experiments. GBS was cultured in Todd Hewitt broth (THB) or Tryptic Soy 5% sheep blood (TS) media and E. coli in Luria-broth (LB) medium or agar. Antibiotics were used at the following concentrations: for GBS—penicillin G (MIC90 0.06 μg ml^−1), ampicillin (MIC90 0.12 μg ml^−1), vancomycin (MIC90 2 μg ml^−1), cefazolin (MIC90 1 μg ml^−1) and chloramphenicol (5 μg ml^−1); for E. coli—ampicillin (50 μg ml^−1) and chloramphenicol (5 μg ml^−1). Both GBS and E. coli cultures were grown at 37° C. (II) Tolerance Using the MBC:MIC Ratio Method. Three GBS laboratory strains (i.e., A909, NEM316, and O90R) were cultured overnight for 18 h at 37° C. in THB. Subcultures in THB were subsequently grown to exponential phase (OD600˜0.3; i.e. 5×10^5 cfu/ml) at 37° C. Cell cultures were then exposed to different concentrations of antibiotics (Penicillin G, Ampicillin, Cefozolin or Vancomycin). […] Cell cultures were dispersed every 18 h before OD600 was measured to determine the lowest concentration of antibiotic with 90% growth inhibition (MIC90). Antibiotic treated cells (8 μl) from each well were re-suspended into PBS (100 μl) and plated (54 μl) on TS agar plates and allowed to grow for an additional 24 h at 37° C. Cell count was performed to determine the lowest concentration of antibiotic with 90% killing of original inoculums (MBC90). (III) Penicillin Killing and Regrowth Tolerance Assay by Microbroth Dilution. Three GBS laboratory strains (i.e., A909, NEM316, and O90R) were cultured overnight for 18 h at 37° C. in THB. Subcultures in THB were subsequently grown to exponential phase (OD600˜0.3) at 37° C. Cell cultures were then exposed to different concentrations of Penicillin G (Sigma, St. Louis, Mo.). […] Cell cultures were dispersed. A 1:20 dilution of cells was re-plated into new wells containing fresh THB with 500 U Penase (to degrade residual penicillin). Cell cultures were allowed to re-grow for an additional 24 h at 37° C. before the OD600 was measured. (IV) Measuring Cell Viability by Determining ATP Concentration. GBS strains were cultured for 18 h at 37° C. in THB. These cells were inoculated into fresh THB and subsequently allowed to grow to exponential phase (OD600 0.25-0.3) at 37° C. One ml of each culture was centrifuged at 5,000×g for 4 min. The cell pellet was re-suspended in ATP-free water. Cellular ATP was extracted using trichloroacetic acid (TCA) (5%) for 2 min and subsequently neutralized with Tris-EDTA-0.1M NaOAc, pH 7.75 to 10×TCA volume. The initial (in.) cellular ATP concentration ([ATP]) was measured using the ENLITEN (Promega) luciferase based reaction kit. THB cultures were then treated with 100×MIC90 Penicillin G for 22 h. The experimental (exp.) cellular ATP was extracted and the concentration was measured as stated above. Based on the calculations ([ATP] exp.)/([ATP] in./O.D. in.), differences in viability were equated with the change in [ATP]. (V) Measuring Penicillin Induced Lysis. Three GBS laboratory strains (A909, NEM316, and O90R) were cultured for 18 h at 37° C. in THB. […]

With `CC1(C)S[C@@H]2[C@H](NC(=O)Cc3ccccc3)C(=O)N2[C@H]1C(=O)O` [Penicillin G] the “100xMIC, regrowth O.D.600” value (GBS strain 47 (III)) was “−− (“−−” indicates an O.D.600 of 0.001 to 0.099)”, the “300xMIC, regrowth O.D.600” value (GBS strain 47 (III)) was “−− (“−−” indicates an O.D.600 of 0.001 to 0.099)” and the “10xMIC, regrowth O.D.600” value (GBS strain 60 (NT)) was “+ (“+” indicates an O.D.600 of 0.100 to 0.250)”. The “30xMIC, regrowth O.D.600” value (GBS strain 60 (NT)) was “++ (“++” indicates an O.D.600 of 0.251 to 0.750)”, the “100xMIC, regrowth O.D.600” value (GBS strain 60 (NT)) was “+ (“+” indicates an O.D.600 of 0.100 to 0.250)” and the “300xMIC, regrowth O.D.600” value (GBS strain 60 (NT)) was “+ (“+” indicates an O.D.600 of 0.100 to 0.250)”. For the same molecule, the “10xMIC, regrowth O.D.600” value (GBS strain 68 (III)) was “+ (“+” indicates an O.D.600 of 0.100 to 0.250)”, the “30xMIC, regrowth O.D.600” value (GBS strain 68 (III)) was “−− (“−−” indicates an O.D.600 of 0.001 to 0.099)” and the “100xMIC, regrowth O.D.600” value (GBS strain 68 (III)) was “+ (“+” indicates an O.D.600 of 0.100 to 0.250)”. The “300xMIC, regrowth O.D.600” value (GBS strain 68 (III)) was “+ (“+” indicates an O.D.600 of 0.100 to 0.250)”, the “10xMIC, regrowth O.D.600” value (GBS strain 71 (III)) was “−− (“−−” indicates an O.D.600 of 0.001 to 0.099)” and the “30xMIC, regrowth O.D.600” value (GBS strain 71 (III)) was “−− (“−−” indicates an O.D.600 of 0.001 to 0.099)”. For the same molecule, the “100xMIC, regrowth O.D.600” value (GBS strain 71 (III)) was “−− (“−−” indicates an O.D.600 of 0.001 to 0.099)”, the “300xMIC, regrowth O.D.600” value (GBS strain 71 (III)) was “−− (“−−” indicates an O.D.600 of 0.001 to 0.099)” and the “10xMIC, regrowth O.D.600” value (GBS strain 90 (Ib)) was “−− (“−−” indicates an O.D.600 of 0.001 to 0.099)”. For the same molecule, the “30xMIC, regrowth O.D.600” value (GBS strain 90 (Ib)) was “−− (“−−” indicates an O.D.600 of 0.001 to 0.099)”, the “100xMIC, regrowth O.D.600” value (GBS strain 90 (Ib)) was “−− (“−−” indicates an O.D.600 of 0.001 to 0.099)” and the “300xMIC, regrowth O.D.600” value (GBS strain 90 (Ib)) was “−− (“−−” indicates an O.D.600 of 0.001 to 0.099)”. For the same molecule, the “10xMIC, regrowth O.D.600” value (GBS strain 91 (III)) was “−− (“−−” indicates an O.D.600 of 0.001 to 0.099)”, the “30xMIC, regrowth O.D.600” value (GBS strain 91 (III)) was “−− (“−−” indicates an O.D.600 of 0.001 to 0.099)” and the “100xMIC, regrowth O.D.600” value (GBS strain 91 (III)) was “−− (“−−” indicates an O.D.600 of 0.001 to 0.099)”. The “300xMIC, regrowth O.D.600” value (GBS strain 91 (III)) was “−− (“−−” indicates an O.D.600 of 0.001 to 0.099)”, the “10xMIC, regrowth O.D.600” value (GBS strain 93 (Ib)) was “−− (“−−” indicates an O.D.600 of 0.001 to 0.099)” and the “30xMIC, regrowth O.D.600” value (GBS strain 93 (Ib)) was “−− (“−−” indicates an O.D.600 of 0.001 to 0.099)”. For the same molecule, the “100xMIC, regrowth O.D.600” value (GBS strain 93 (Ib)) was “−− (“−−” indicates an O.D.600 of 0.001 to 0.099)”, the “300xMIC, regrowth O.D.600” value (GBS strain 93 (Ib)) was “−− (“−−” indicates an O.D.600 of 0.001 to 0.099)” and the “10xMIC, regrowth O.D.600” value (GBS strain 97 (V)) was “−− (“−−” indicates an O.D.600 of 0.001 to 0.099)”. For the same molecule, the “30xMIC, regrowth O.D.600” value (GBS strain 97 (V)) was “++ (“++” indicates an O.D.600 of 0.251 to 0.750)”, the “100xMIC, regrowth O.D.600” value (GBS strain 97 (V)) was “++ (“++” indicates an O.D.600 of 0.251 to 0.750)” and the “300xMIC, regrowth O.D.600” value (GBS strain 97 (V)) was “++ (“++” indicates an O.D.600 of 0.251 to 0.750)”. For the same molecule, the “10xMIC, regrowth O.D.600” value (GBS strain 101 (NT)) was “−− (“−−” indicates an O.D.600 of 0.001 to 0.099)”, the “30xMIC, regrowth O.D.600” value (GBS strain 101 (NT)) was “−− (“−−” indicates an O.D.600 of 0.001 to 0.099)” and the “100xMIC, regrowth O.D.600” value (GBS strain 101 (NT)) was “−− (“−−” indicates an O.D.600 of 0.001 to 0.099)”. The “300xMIC, regrowth O.D.600” value (GBS strain 101 (NT)) was “−− (“−−” indicates an O.D.600 of 0.001 to 0.099)”, the “10xMIC, regrowth O.D.600” value (GBS strain 117 (Ia)) was “+ (“+” indicates an O.D.600 of 0.100 to 0.250)” and the “30xMIC, regrowth O.D.600” value (GBS strain 117 (Ia)) was “+ (“+” indicates an O.D.600 of 0.100 to 0.250)”. For the same molecule, the “100xMIC, regrowth O.D.600” value (GBS strain 117 (Ia)) was “+ (“+” indicates an O.D.600 of 0.100 to 0.250)”, the “300xMIC, regrowth O.D.600” value (GBS strain 117 (Ia)) was “+ (“+” indicates an O.D.600 of 0.100 to 0.250)” and the “10xMIC, regrowth O.D.600” value (GBS strain 122 (III)) was “−− (“−−” indicates an O.D.600 of 0.001 to 0.099)”. The “30xMIC, regrowth O.D.600” value (GBS strain 122 (III)) was “−− (“−−” indicates an O.D.600 of 0.001 to 0.099)”, the “100xMIC, regrowth O.D.600” value (GBS strain 122 (III)) was “−− (“−−” indicates an O.D.600 of 0.001 to 0.099)” and the “300xMIC, regrowth O.D.600” value (GBS strain 122 (III)) was “−− (“−−” indicates an O.D.600 of 0.001 to 0.099)”. For the same molecule, the “10xMIC, regrowth O.D.600” value (GBS strain 127 (Ia)) was “−− (“−−” indicates an O.D.600 of 0.001 to 0.099)”, the “30xMIC, regrowth O.D.600” value (GBS strain 127 (Ia)) was “++ (“++” indicates an O.D.600 of 0.251 to 0.750)” and the “100xMIC, regrowth O.D.600” value (GBS strain 127 (Ia)) was “++ (“++” indicates an O.D.600 of 0.251 to 0.750)”. The “300xMIC, regrowth O.D.600” value (GBS strain 127 (Ia)) was “++ (“++” indicates an O.D.600 of 0.251 to 0.750)”, the “10xMIC, regrowth O.D.600” value (GBS strain 129 (V)) was “−− (“−−” indicates an O.D.600 of 0.001 to 0.099)” and the “30xMIC, regrowth O.D.600” value (GBS strain 129 (V)) was “−− (“−−” indicates an O.D.600 of 0.001 to 0.099)”. For the same molecule, the “100xMIC, regrowth O.D.600” value (GBS strain 129 (V)) was “−− (“−−” indicates an O.D.600 of 0.001 to 0.099)”, the “300xMIC, regrowth O.D.600” value (GBS strain 129 (V)) was “−− (“−−” indicates an O.D.600 of 0.001 to 0.099)” and the “10xMIC, regrowth O.D.600” value (GBS strain 131 (V)) was “−− (“−−” indicates an O.D.600 of 0.001 to 0.099)”. For the same molecule, the “30xMIC, regrowth O.D.600” value (GBS strain 131 (V)) was “−− (“−−” indicates an O.D.600 of 0.001 to 0.099)”, the “100xMIC, regrowth O.D.600” value (GBS strain 131 (V)) was “−− (“−−” indicates an O.D.600 of 0.001 to 0.099)” and the “300xMIC, regrowth O.D.600” value (GBS strain 131 (V)) was “−− (“−−” indicates an O.D.600 of 0.001 to 0.099)”. The “10xMIC, regrowth O.D.600” value (GBS strain 156 (Ia)) was “−− (“−−” indicates an O.D.600 of 0.001 to 0.099)”, the “30xMIC, regrowth O.D.600” value (GBS strain 156 (Ia)) was “−− (“−−” indicates an O.D.600 of 0.001 to 0.099)” and the “100xMIC, regrowth O.D.600” value (GBS strain 156 (Ia)) was “−− (“−−” indicates an O.D.600 of 0.001 to 0.099)”. For the same molecule, the “300xMIC, regrowth O.D.600” value (GBS strain 156 (Ia)) was “++ (“++” indicates an O.D.600 of 0.251 to 0.750)” and the “10xMIC, regrowth O.D.600” value (GBS strain 172 (NT)) was “−− (“−−” indicates an O.D.600 of 0.001 to 0.099)”.
